Data from PMC5175178, “Development of an in-vivo active reversible butyrylcholinesterase inhibitor” (Scientific Reports, 2016).
Like-named read-outs stand apart in the source and are kept apart here.

Assays:
[1] = system: cryopreserved human hepatocytes; assay: Metabolite identification in cryopreserved human hepatocytes, LC-HRMS; conditions: 2 h with human cryopreserved hepatocytes
Procedure: The plasma metabolic stability and hepatic clearance were estimated by the substrate depletion method. Qualitative aspect of metabolic degradation was performed by metabolite identification using LC-high resolution mass spectrometry (HRMS). […] Principal Phase I (oxidative) and Phase II (conjugative) metabolites have been detected and characterized following previously described preocedure^27. […] Samples were taken at time 0 and the end of the incubation (2 h), respectively. A control sample (no test compound added) was also prepared and incubated for the same period of time. After the reaction was stopped by addition of acetonitrile, the supernatants were subjected to HPLC-MS analysis. Separation of analytes was achieved using Acquity HSS T3 column (100 × 2.1 mm, 1.8 µ, Waters). The sample solutions-supernatants (5 µL) were injected and eluted at a flow rate of 0.5 mL min^–1, using a linear gradient of mobile phase A (0.1% formic acid in water) and mobile phase B (0.1% formic acid in MeCN). […] Retention times and the respective MS and MS/MS spectra of the species detected in the incubated sample and not in time-zero or blank sample were identified and recorded.

[2] = Caco-2 monolayer bidirectional permeability assay; conditions: human, Caco-2, Papp(A–B), apical-to-basolateral, 100 µM donor
Procedure: They were grown on Transwell® culture inserts with a polycarbonate membrane (diameter, 12 mm; pore size, 0.4 µm). 50,000 cells/filter membranes were used for seeding and the medium was changed every two days. At day 18, transepithelial electrical resistance (TEER) was measured for each filter with Caco-2 cell monolayers. […] The samples were acidified by dilution with the same volume of 0.01M HCl before fluorescence measurements.
Ringer buffer with 10 mM d-glucose or 10 mM mannitol on apical and basolateral side of the tissue, respectively, was used as an incubation saline. […] The stock solutions were added either to the apical or to the basolateral compartment to obtain bidirectional permeability measurements. Six samples were withdrawn in 20 min intervals. Each time 300 µl was taken from the 1500 µL basolateral acceptor compartment and 100 µL from the 500 µL apical acceptor compartment. These volumes were immediately replaced by the appropriate fresh incubation saline. […] All apparent permeability coefficients were calculated as described previously^24.

[3] = system: scopolamine-induced memory impairment in mice; assay: Morris water maze task, scopolamine-induced memory impairment
Procedure: In this task the time taken to reach the hidden platform (i.e., the escape latency time), the distance travelled, and the mean speed of swimming are recorded for each experimental group. […] For the behavioral tasks, the mice were selected at random, and each group consisted of 8 to 10 mice dose^−1. The experiments were performed between 08:00 and 14:00. Immediately after these in-vivo assays, the animals were euthanized by cervical dislocation. […] All efforts were made to minimize the number of mice used and their suffering.
The Morris water maze is a circular, plastic, grey-painted pool (diameter, 120 cm; height, 60 cm), filled with water (up to about 48 cm below the edge, to prevent an animal from jumping out) that was maintained at 23 ±1 °C. The pool was divided into four equal quadrants (compass locations: NE, NW, SE, SW) by a computerized video tracking system (SMART, ver. 3.0; Panlab, Spain). An escape platform (diameter, 11 cm; height, 47 cm) at a fixed location (the center of the NW quadrant; i.e., the target quadrant). The escape platform was made of transparent Plexiglas and was immersed 1 cm under the surface of water; this was invisible to the swimming mouse. The maze was lighted with the intensity of 45 lx.
During the spatial acquisition trial (six consecutive days), the mice were assigned to training sessions (four training sessions a day; 4 h apart) in which the mice were trained to escape from the water by reaching the hidden platform, the location of which could be identified using distal extra-maze cues (A4-sized sheets of black laminated paper with colored geometric symbols) attached to the room walls to provide navigation points^31. Visual cues had different colors and dimensions, and were kept constant during the whole experiment^31,32. The whole experiment was conducted by an experimenter who remained always stationary in a constant location, thus serving as an additional distal cue for the swimming mice. […] The time taken to reach the hidden platform (escape latency time), distance travelled to reach the platform, and mean speed were recorded in each experimental group and analyzed.
On the seventh day (24 h after the last training) the platform was removed from the pool and a probe trial was performed (without drug treatment). Each animal was released from a different start point and was allowed to swim for 60 s. […] Latency time to the first crossing of the former platform location (target zone), number of crossings of the target zone, time spent in the target NW quadrant, total distance, distance spent in NW quadrant, entries into the NW quadrant, and mean speed were measured^31.

in vitro [4] = conditions: human, plasma
Procedure: (§1) The plasma metabolic stability and hepatic clearance were estimated by the substrate depletion method.
(§2) The incubation was performed in a 37 °C water bath for 2 h. An aliquot of the incubation mixture was transferred to acetonitrile at 0, 0.5, 1, 1.5 and 2 h, respectively. Samples were then mixed and centrifuged. Supernatants were used for HPLC-MS/MS analysis using selected reaction monitoring, and peak areas were recorded for each analyte. The HPLC conditions consisted of a binary LC pump with autosampler, a C18 column (2 × 20 mm), and gradient elution. The area of precursor compound remaining after each time points relative to the amount remaining at time zero, expressed as percent, is calculated. Subsequently, the half-life (t1/2) was estimated from the slope of the initial linear range of the logarithmic curve of the compound remaining (%) versus time, assuming first order kinetics.

in vitro [5] = conditions: both, human, hepatocytes, pH 7.3
Procedure: as §1
(§3) Cryopreserved hepatocytes (mixed gender and pool of 10 or more) were thawed, washed, and resuspended in Krebs-Heinslet buffer (pH 7.3). […] The reaction was stopped by adding acetonitrile into the incubation mixture. Samples were then mixed, transferred completely to another 96-well plate, and centrifuged. Supernatants were used for HPLC-MS/MS analysis. As reference substances, four compounds were tested in each assay. […] In the HPLC-MS/MS analysis peak areas corresponding to the test compounds were recorded. Metabolic stability, expressed as percentage of the parent compound remaining, was calculated by comparing the peak area of the compound at the time point relative to that at time 0. The half-life (t1/2) was estimated from the slope of the initial linear range of the logarithmic curve of the compound remaining (%) versus time, assuming first order kinetics. The apparent intrinsic clearance (Clint in µL/min/million cells) was calculated from the half-life according to the following formula:

mAChE = target: T1, mAChE (Mus musculus, UniProt P21836); assay: In-vitro inhibitory activity against mAChE, method of Ellman; assay type: biochemical, murine
T1 construct: donated by Florian Nachon (IBS, Grenoble)
T1 sequence (P21836 32-614): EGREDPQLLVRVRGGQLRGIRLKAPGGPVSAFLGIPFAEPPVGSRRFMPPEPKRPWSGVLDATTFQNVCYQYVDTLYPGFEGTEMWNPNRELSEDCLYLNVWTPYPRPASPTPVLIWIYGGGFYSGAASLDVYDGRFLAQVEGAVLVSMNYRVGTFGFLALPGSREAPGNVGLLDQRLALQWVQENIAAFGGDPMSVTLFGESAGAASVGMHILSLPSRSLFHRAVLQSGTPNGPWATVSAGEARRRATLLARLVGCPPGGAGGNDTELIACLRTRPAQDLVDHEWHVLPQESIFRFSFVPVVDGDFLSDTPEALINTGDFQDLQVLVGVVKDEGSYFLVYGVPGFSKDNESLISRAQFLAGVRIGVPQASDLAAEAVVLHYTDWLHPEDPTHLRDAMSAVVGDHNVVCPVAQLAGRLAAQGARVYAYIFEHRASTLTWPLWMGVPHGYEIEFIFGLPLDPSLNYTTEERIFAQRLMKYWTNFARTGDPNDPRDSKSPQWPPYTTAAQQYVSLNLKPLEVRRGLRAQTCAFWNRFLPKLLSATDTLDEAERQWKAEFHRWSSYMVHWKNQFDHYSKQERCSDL
Procedure: The inhibitory potencies of the compounds against the ChEs were determined using the method of Ellman[32].
The enzyme solutions were prepared by dilution of the concentrated stocks in phosphate-buffered solution (0.1 M, pH 8.0). […] The reactions were started by addition of the substrate, at room temperature. The final content of the organic solvent (DMSO) was always 1%. […] To determine the blank value (b), phosphate-buffered solution replaced the enzyme solution. The initial velocity (v0) was calculated from the slope of the linear trend obtained, with each measurement carried out in triplicate. […] The compounds were added to each well at a final concentration of 10 μM. […] The initial velocities in the presence of the test compounds (vi) were calculated. The inhibitory potencies are expressed as the residual activities (RA = (vi – b) / (vo – b)). […] The IC50 values were obtained by plotting the residual enzyme activities against the applied inhibitor concentrations, with the experimental data fitted to Equation (1):
where X is the logarithm of the inhibitor concentration, and Y is the residual activity. For the fitting procedure, the Gnuplot software and an in-house python script were used.

[6] = system: scopolamine-induced memory impairment in mice; assay: Passive avoidance task, scopolamine-induced memory impairment; assay type: in vivo, Albino Swiss (CD–1 Krf) mice
Procedure: The first behavioral test performed was the passive avoidance (PA) task, which allows the evaluation of the effects of a drug on fear-motivated contextual memory. […] In the passive avoidance task, better memory performance is determined according to a longer step-through latency in the retention trial (i.e., the testing phase) than in the acquisition trial (i.e., the conditioning phase). […] The mice had free access to food and water, and the ambient temperature and humidity of the room were kept constant throughout all of the tests. For the behavioral tasks, the mice were selected at random, and each group consisted of 8 to 10 mice dose^−1. The experiments were performed between 08:00 and 14:00. Immediately after these in-vivo assays, the animals were euthanized by cervical dislocation. […] All efforts were made to minimize the number of mice used and their suffering.
The effect of the test compounds on acquisition and retention in the passive avoidance task was conducted accordingly to a previously described method^30. For this purpose, the passive avoidance apparatus was used (Panlab Harvard Apparatus, Spain).
The testing phase was conducted 24 h after the acquisition phase. For the acquisition, each mouse was initially placed for 30 s in the light compartment (exploration period; guillotine gate closed). At the end of the exploration period the guillotine door between the light and the dark compartments was opened and the time elapsed before entering the black chamber was recorded. As soon as the mouse entered the dark compartment, the door automatically closed and an electrical shock (current intensity: 0.2 mA, duration: 2 s) was delivered through the grid floor.
For the retention trial (drug off), the mice were placed in the illuminated white compartment again, and the latency time between door opening and entry into the dark compartment was recorded for each mouse. […] Better memory performance was indicated by longer latency before entry into the black chamber in the test (retention) phase than in the conditioning (acquisition) phase.

in vitro [7] = assay type: in vitro ADME; parameters: protein bound: dose or concentration left out as unconfirmed; conditions: for recovery at 4 h, 10 µM: human, pH 7.4, human plasma protein binding assay
Procedure: The experiment was accepted in accordance with Eurofins validation Standard Operating Procedure.
The equilibrium dialysis technique was used to separate the fraction of the bound to human plasma protein. The assay was performed in a 96-well format in a dialysis block constructed from Teflon to minimize the unspecific binding^25. Plasma from human was used as the default protein containing matrix. […] The dialysate compartment was loaded with the phosphate buffered saline (PBS, pH 7.4), and the sample side was loaded with equal volume of the spiked protein matrix. The dialysis plate was then sealed and incubated at 37 °C for 4 h. A control sample (n = 2) was prepared from the spiked protein matrix in the same manner as the assay sample (without dialysis). The control sample served as the basis for the recovery determination. After the incubation, samples were taken from each compartment, diluted with phosphate buffer followed by addition of acetonitrile and centrifugation. The supernatants were then used for HPLC-MS/MS analysis using selected reaction monitoring. The HPLC conditions consisted of a binary LC pump with autosampler, a C18 column (2 × 20 mm), and gradient elution.
Protein binding (%) = (Areap-Areab) / Areap ×100 (3),
Recovery (%) = (Areap-Areab) / Areac ×100 (4),
The recovery determination serves as an indicator of reliability of the calculated protein binding value. Low recovery would indicate that the test compound is lost during the course of the assay, most likely due to non-specific binding or degradation.

[8] = system: scopolamine-induced memory impairment in mice; assay: Two-day radial arm water maze task, scopolamine-induced memory impairment; assay type: in vivo, C57BL/6J mice
Procedure: In this task incorrect arm entries (i.e., errors) are counted. […] The mice had free access to food and water, and the ambient temperature and humidity of the room were kept constant throughout all of the tests. For the behavioral tasks, the mice were selected at random, and each group consisted of 8 to 10 mice dose^−1. The experiments were performed between 08:00 and 14:00. Immediately after these in-vivo assays, the animals were euthanized by cervical dislocation. […] All efforts were made to minimize the number of mice used and their suffering.
C57BL/6J mice were subjected to the radial arm water maze paradigm^34,35. The main part of the apparatus (Panlab Harvard Apparatus, Spain) consists of a 6-arm maze in a pool filled with water to approximately 10 cm from the top, to be high enough to cover the hidden platform by about 0.5 cm, but also low enough that the visible platform was not covered. The pool was regularly cleaned of any debris left by the mice. The temperature of the water was kept constant during testing (23 ±1 °C). The tester remained in the same position throughout the testing, thus providing an additional visual cue for the mice.
On day 1, 15 trials were run in five blocks of three. Each trial lasted up to 60 s. The start arm was varied for each trial, with the goal arm remaining constant for a given individual for both days^34,35. For the first 12 trials, the platform was alternately visible, then hidden, and then hidden for the last three trials. On day 2, the mice (without drug treatment on this day) were run in the same manner as on day 1, but the platform was hidden for all of the trials. As errors have been reported to be the most sensitive measure in this assay^34, the number of errors (i.e., incorrect arm entries made) was counted in a 60 s time-frame. Incorrect arm entries occurred when the mouse selected an arm that was not the goal arm. Entries into the goal arm were not counted as errors, even if the platform was not located. An entry was considered to occur when all four legs of the mice had entered the alley completely. […] If the platform was not located within 60 s, the mice were gently guided through the water by placing a hand behind the animal to direct its swimming direction toward the platform. […] After that, the mouse was gently removed from the platform and thoroughly dried using cellulose paper before placing it back into its home cage under a heat source (a heat lamp).
For the statistical analysis of the data obtained, to minimize the impact of individual trial variability, each mouse error for the finding of the platform for three consecutive trials were averaged, giving five data points (5 trial blocks): T1 (trials 1–3), T2 (trials 4–6), T3 (trials 7–9), T4 (trials 10–12) and T5 (trials 13–15), separately for each day of testing.

mice [9] = assay: Observation of acute cholinergic adverse effects; assay type: in vivo; conditions: even at 100 mg kg^−1
[10] = system: Aβ(1–42)-induced cytotoxicity in SH-SY5Y cells; assay: Neuroprotection against Aβ(1–42)-induced cytotoxicity, PI flow cytometry; assay type: cell-based, human; conditions: 10 μM, 5 μM Aβ(1–42), 48 h
Procedure: Neurotoxicity induced by Aβ species (mainly Aβ(1–42)) is a contributor to the pathogenesis of neurodegeneration in AD[41]. […]. […] […].
Supplementary Figure 8. […]. […].
[…]; Sigma, St. Louis, MO, USA). […] SH-SY5Y cells were seeded into a 24-well culture plate (1.2 ×10^5/well) and next day, treated as described above. After 48 h treatment, cells were washed with pre-warmed PBS and further stained with PI solution (30 µM) for 15 min at 37 °C. Cells were then analyzed for cytotoxicity by flow cytometry on FACS Calibur (BD Bioscience, San Jose, CA, USA). The percentage of PI positive cells (PI^pos) was evaluated using FlowJo software (Ashland, OR, USA) and results are presented as a relative fold increase of PI^pos corresponding vehicle treatment (DMSO control).

mice [11] = assay: Rotarod test, motor coordination; conditions: for Time spent on the rotarod (s ±SEM) 6 rpm / Time spent on the rotarod (s ±SEM) 18 rpm / Time spent on the rotarod (s ±SEM) 24 rpm: 60 min
Procedure: The mice had free access to food and water, and the ambient temperature and humidity of the room were kept constant throughout all of the tests. For the behavioral tasks, the mice were selected at random, and each group consisted of 8 to 10 mice dose^−1. The experiments were performed between 08:00 and 14:00. Immediately after these in-vivo assays, the animals were euthanized by cervical dislocation. […] All efforts were made to minimize the number of mice used and their suffering.
Before the test, the mice were trained for three consecutive days on the rotarod apparatus (Rotarod apparatus, May Commat RR0711, Turkey; rod diameter, 2 cm) that was rotating at a fixed speed of 18 rotations per minute (rpm). In each training session, the mice were put on the rotating rod for 3 min, with an unlimited number of trials. The correct experimentation was performed 24 h after the last training session. […] Motor impairments were defined as the inability to remain on the rotarod apparatus for 1 min, and were expressed as the mean time spent on the rotarod^36.

HepG2 cells = assay: Cytotoxicity in HepG2 cells, MTS metabolic activity assay; conditions: 24 h
Procedure: After 24 h (a) or 48 h (b), the cell viability was evaluated using the MTS assay. The control group (DMSO) was considered as 100% cell viability. Data are means ±SD of at least three independent experiments, each carried out in triplicate (a) and quadruplicate (b).
HepG2 cells (1 ×10^4 cells/well) were treated for 24 h with the appropriate concentrations of the compounds of interest or the corresponding vehicle (control cells), in triplicates in 96-well plates. The metabolic activities were determined using the CellTiter 96 Aqueous One Solution Cell Proliferation Assay (Promega, WI/USA), according to the manufacturer instructions.

[12] = system: cryopreserved human hepatocytes; assay: Metabolic stability in cryopreserved human hepatocytes; conditions: 1 µM
Procedure: as §1, §3

[13] = probe trial day 7, scopolamine + 30 mg kg^–1
[14] = human plasma, 10 µM, 37 °C, 4 h

Procedure for Human plasma stability: as §1, §2

COCCN(CC1CCCN(Cc2ccccc2)C1)S(=O)(=O)c1ccc2ccccc2c1 (racemic) [compound 2, (±)-N-((1-benzylpiperidin-3-yl)methyl)-N-(2-methoxyethyl)naphthalene-2-sulfonamide]
possible metabolites identified with LC-HRMS [1]: N-debenzylated, demethylated, and a demethylated + glucoronide products
Papp A→B at 120 min, 100 µM [2]: 30 ± 10.7 ×10⁻⁶ cm/s
distance travelled to reach the platform ([3]; day 3, scopolamine + 30 mg kg^−1): 5.38 m
distance travelled to reach the platform ([3]; day 5, scopolamine + 30 mg kg^−1): 1.69 m
Distance in goal quadrant (% ±SEM) [3, 13]: 45.35 ±2.6 F[2,25] = 0.2035; NS %
Entries in zone NW (n ±SEM) [3, 13]: 7.3 ±0.7 F[2,25] = 14.59; p <0.0001 n
Latency time (s ±SEM) [3, 13]: 1.2 ±0.4 F[2,25] = 1.792; NS s
Number of NW zone crossings (n ±SEM) [3, 13]: 2.6 ±0.5 F[2,25] = 2.182; NS n
Time in target (NW) quadrant (s ±SEM) [3, 13]: 29.3 ±1.5 F[2,25] = 0.8737; NS s
Total distance covered (m ±SEM) [3, 13]: 11.5 ±0.6 F2,25] = 0.3439; NS m
mean speed of swimming ([3]; scopolamine + compound 2 30 mg kg^−1 (vehicle 0.17)): 0.16 m s^−1
half-life at 1 µM (in vitro [4]): > 2 h
half-life at 1 µM (in vitro [5]): 0.928 h
%RA at 10 µM ±SEM mAChE (mAChE; residual activity at 10 μM, %RA > 75% was considered as no inhibition, Table 1): 97% ± 2%
%RA at 10 µM ±SEM mAChE (mAChE; residual activity at 10 µM, %RA >75% was considered no inhibition, Supplementary Table 1): 97% ±2%
step-through latency, retention trial ([6]; 10 mg kg^−1 IP before scopolamine 1 mg kg^−1): 70 s
step-through latency, retention trial ([6]; 20 mg kg^−1 IP before scopolamine 1 mg kg^−1): 58 s
step-through latency, retention trial ([6]; 30 mg kg^−1 IP before scopolamine 1 mg kg^−1): 102 s
protein bound (in vitro [7]; human blood plasma, equilibrium dialysis): 96%
Protein Bound (%) 1st (in vitro [7]; [14]): 96.0%
Protein Bound (%) 2nd (in vitro [7]; [14]): 95.3%
Protein Bound (%) Mean (in vitro [7]; [14]): 96%
recovery at 4 h, 10 µM (in vitro [7]; read-out: Recovery (%) 1st): 101%
recovery at 4 h, 10 µM (in vitro [7]; read-out: Recovery (%) 2nd): 99%
recovery at 4 h, 10 µM (in vitro [7]; read-out: Recovery (%) Mean): 100%
errors at the end of the acquisition phase (day 1) ([8]; scopolamine + 30 mg kg^−1): < 1 error
errors in the last trial block of day two ([8]; scopolamine + 30 mg kg^−1 on day 1): < 1 error
acute cholinergic adverse effects (mice [9]): no acute cholinergic adverse effects
neuroprotective effect on Aβ(1–42)-induced cell death [10]: reversed Aβ(1–42)-induced cell death
Time spent on the rotarod (s ±SEM) 6 rpm (mice [11]; 30 mg kg^-1 IP): 60.0 s
Time spent on the rotarod (s ±SEM) 18 rpm (mice [11]; 30 mg kg^-1 IP): 60.0 s
Time spent on the rotarod (s ±SEM) 24 rpm (mice [11]; 30 mg kg^-1 IP): 60 s
Time spent on the rotarod (s ±SEM) 6 rpm (mice [11]; 100 mg kg^-1 IP): 60.0 s
Time spent on the rotarod (s ±SEM) 18 rpm (mice [11]; 100 mg kg^-1 IP): 53.3 ± 6.8 s
Time spent on the rotarod (s ±SEM) 24 rpm (mice [11]; 100 mg kg^-1 IP): 52.3 ± 6.8 s
impact on motor coordination (mice [11]; even at 100 mg kg^−1): did not induce motor deficits
LD50 HepG2 cells (HepG2 cells): 58.67 µM
half-life in human plasma (Human plasma stability; discussion): > 2 h
Half-Life t1/2 (min) 1st (Human plasma stability; human plasma, 1 µM, 37 °C): 223.1 min
Half-Life t1/2 (min) 2nd (Human plasma stability; human plasma, 1 µM, 37 °C): 206.7 min
Half-Life t1/2 (min) Mean (Human plasma stability; human plasma, 1 µM, 37 °C): >120 min
Half-Life t1/2 (min) 2nd [12]: 51.7 min
Half-Life t1/2 (min) Mean [12]: 54 min
Half-Life t1/2 (min) 2rd ([12]; third replicate column): 55.6 min
